Publication PMC4095795 (ChemMedChem, 2014)

How the values were obtained:
[1] = biological target: T1, Recombinant cathepsin K (human) (Homo sapiens, UniProt P43235); details: read-out: IC50 against purified human cathepsin K; parent inhibitors; identical within error under light vs. dark; cathepsin K 2 nM, Z-Gly-Pro-Arg-AMC 100 μM
T1 sequence (P43235 115-329): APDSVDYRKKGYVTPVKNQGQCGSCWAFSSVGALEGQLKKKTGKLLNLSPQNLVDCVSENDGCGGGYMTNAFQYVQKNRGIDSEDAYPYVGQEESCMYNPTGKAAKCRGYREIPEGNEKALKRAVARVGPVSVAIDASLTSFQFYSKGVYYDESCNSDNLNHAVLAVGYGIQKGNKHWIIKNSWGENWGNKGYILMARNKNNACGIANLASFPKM

cathepsin K [2] = biological target: T2, cathepsin K (Mus musculus, UniProt P55097); assay: Live cell cathepsin K activity staining in osteoclasts
T2 sequence (P55097 115-329): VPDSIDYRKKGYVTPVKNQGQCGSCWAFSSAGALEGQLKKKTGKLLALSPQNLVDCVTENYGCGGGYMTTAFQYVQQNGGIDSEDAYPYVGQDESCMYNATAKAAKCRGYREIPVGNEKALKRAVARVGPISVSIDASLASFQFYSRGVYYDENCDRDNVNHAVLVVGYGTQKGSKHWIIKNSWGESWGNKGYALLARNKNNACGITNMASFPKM

cathepsin K [3] = details: cited from earlier work
purified cathepsin K = details: read-out: IC50 against purified cathepsin K; literature value; cited from earlier work
[4] = longer than 2; cited from earlier work
[5] = cited from earlier work
[6] = tested on: PC3 prostate carcinoma cells; assay: Cell viability, MTT assay, PC3 cells; details: PC-3 cells, dark or irradiated, 24 h, tested 1 nM–100 μM
[7] = tested on: bone marrow macrophages (BMMs); assay: Cell viability, MTT assay, BMM cells; details: dark or irradiated, 24 h, tested 1 nM–100 μM

| maximum inhibition of Z-LR-4MβNA hydrolysis (cathepsin K [2]; 4 under light conditions) [%] | reduction of hydrolysis of Z-LR-4MβNA (cathepsin K [2]; 10–1000 nM, dose dependent, with CA074Me 1 μM) | SMILES | IC50 [1] [nM] | inhibition of cathepsin K activity in live cell assays (cathepsin K [3]) | IC50 (purified cathepsin K) [nM] | half-life in vivo relative to 2 [4] | plasma stability relative to 2 [5] | effect on Z-LR-4MβNA hydrolysis at 1000 nM (cathepsin K [2]; 1000 nM, with CA074Me 1 μM) | difference in inhibition between light and dark (cathepsin K [2]; Z-LR-4MβNA, with CA074Me 1 μM) | concentrations with no effects on viability / well tolerated (MTT) [6] | concentrations with no effects on viability / well tolerated (MTT) [7] |
| --- | --- | --- | --- | --- | --- | --- | --- | --- | --- | --- | --- |
| 50 | up to 50% | CC(C)CC(NC(=O)OCc1ccccc1)C(=O)NCC#N (stereo not drawn) [Compound 2, Cbz-Leu-NHCH2CN, reference compound] | 36 | inhibit cathepsin K activity in live cell assays | 35 |  |  |  |  |  |  |
|  |  | CC(C)CC(NC(=O)OCc1ccccc1)C(=O)NC(C#N)COCc1ccccc1 (stereo not drawn) [Compound 3, Cbz-Leu-Ser(OBn)-CN] | 28 |  | 9 | roughly 10 times | longer plasma stability |  |  |  |  |
|  |  | CC#N.CC#N.F[P-](F)(F)(F)(F)F.F[P-](F)(F)(F)(F)F.[Ru+2].c1ccc(-c2ccccn2)nc1.c1ccc(-c2ccccn2)nc1 [reference compound] |  |  |  |  |  | slight reduction | no difference in inhibition between light and dark experiments | up to 10 μM | up to 10 μM |
